The NIST ThermoML archive (doi:10.1016/j.jct.2015.09.022)
± gives the expanded uncertainty stated by the source.

Assays:
[1] = xn = mol fraction of the nth substance listed; conditions: 100.7 kPa, Liquid; for viscosity: Falling or rolling sphere viscometry; for speed of sound: Frequency=3 MHz, Sing-around technique in a fixed-path interferometer; for mass density: Vibrating tube method
[2] = 100.7 kPa, Liquid; for viscosity: Falling or rolling sphere viscometry; for speed of sound: Frequency=3 MHz, Sing-around technique in a fixed-path interferometer; for mass density: Vibrating tube method

SMILES: CCCC[n+]1ccn(C)c1.O=S(=O)([N-]S(=O)(=O)C(F)(F)F)C(F)(F)F + CCCC=O
- viscosity ([1]; 298.15 K, x1 = 1): 50.04 ± 3 mPa·s
- speed of sound ([1]; 298.15 K, x1 = 1): 1227.8 ± 1.5 m/s
- mass density ([1]; 298.15 K, x1 = 1): 1436.82 ± 0.62 kg/m3
- viscosity ([1]; 303.15 K, x1 = 1): 40.72 ± 2.5 mPa·s
- speed of sound ([1]; 303.15 K, x1 = 1): 1217.5 ± 1.5 m/s
- mass density ([1]; 303.15 K, x1 = 1): 1431.98 ± 0.61 kg/m3
- viscosity ([1]; 308.15 K, x1 = 1): 33.73 ± 2.1 mPa·s
- speed of sound ([1]; 308.15 K, x1 = 1): 1205.2 ± 1.5 m/s
- mass density ([1]; 308.15 K, x1 = 1): 1427.16 ± 0.61 kg/m3
- viscosity ([1]; 313.15 K, x1 = 1): 28.28 ± 1.7 mPa·s
- speed of sound ([1]; 313.15 K, x1 = 1): 1194.4 ± 1.5 m/s
- mass density ([1]; 313.15 K, x1 = 1): 1422.37 ± 0.6 kg/m3
- viscosity ([1]; 318.15 K, x1 = 1): 24.01 ± 1.5 mPa·s
- speed of sound ([1]; 318.15 K, x1 = 1): 1184.5 ± 1.5 m/s
- mass density ([1]; 318.15 K, x1 = 1): 1417.6 ± 0.6 kg/m3
- viscosity ([1]; 323.15 K, x1 = 1): 20.32 ± 1.2 mPa·s
- speed of sound ([1]; 323.15 K, x1 = 1): 1171.3 ± 1.5 m/s
- mass density ([1]; 323.15 K, x1 = 1): 1412.86 ± 0.59 kg/m3

SMILES: CCCCN [1-butanamine]
- viscosity ([2]; 298.15 K): 0.47 ± 0.03 mPa·s
- speed of sound ([2]; 298.15 K): 1246.5 ± 1.3 m/s
- mass density ([2]; 298.15 K): 733.33 ± 0.2 kg/m3
- viscosity ([2]; 303.15 K): 0.44 ± 0.03 mPa·s
- speed of sound ([2]; 303.15 K): 1223.9 ± 1.3 m/s
- mass density ([2]; 303.15 K): 728.5 ± 0.2 kg/m3
- viscosity ([2]; 308.15 K): 0.41 ± 0.03 mPa·s
- speed of sound ([2]; 308.15 K): 1201.3 ± 1.3 m/s
- mass density ([2]; 308.15 K): 723.67 ± 0.2 kg/m3
- viscosity ([2]; 313.15 K): 0.39 ± 0.02 mPa·s
- speed of sound ([2]; 313.15 K): 1178.7 ± 1.3 m/s
- mass density ([2]; 313.15 K): 718.66 ± 0.2 kg/m3
- viscosity ([2]; 318.15 K): 0.37 ± 0.02 mPa·s
- speed of sound ([2]; 318.15 K): 1156.2 ± 1.3 m/s
- mass density ([2]; 318.15 K): 714.1 ± 0.2 kg/m3
- viscosity ([2]; 323.15 K): 0.35 ± 0.02 mPa·s
- speed of sound ([2]; 323.15 K): 1133.5 ± 1.3 m/s
- mass density ([2]; 323.15 K): 709.21 ± 0.2 kg/m3

SMILES: CCCCOC(C)=O [butyl ethanoate] + CCCC[n+]1ccn(C)c1.O=S(=O)([N-]S(=O)(=O)C(F)(F)F)C(F)(F)F
- viscosity ([1]; 298.15 K, x2 = 0): 0.67 ± 0.07 mPa·s
- speed of sound ([1]; 298.15 K, x2 = 0): 1190.5 ± 1.4 m/s
- mass density ([1]; 298.15 K, x2 = 0): 876 ± 0.2 kg/m3
- viscosity ([1]; 303.15 K, x2 = 0): 0.64 ± 0.06 mPa·s
- speed of sound ([1]; 303.15 K, x2 = 0): 1169.8 ± 1.4 m/s
- mass density ([1]; 303.15 K, x2 = 0): 870.86 ± 0.2 kg/m3
- viscosity ([1]; 308.15 K, x2 = 0): 0.58 ± 0.06 mPa·s
- speed of sound ([1]; 308.15 K, x2 = 0): 1149.2 ± 1.4 m/s
- mass density ([1]; 308.15 K, x2 = 0): 865.69 ± 0.2 kg/m3
- viscosity ([1]; 313.15 K, x2 = 0): 0.57 ± 0.06 mPa·s
- speed of sound ([1]; 313.15 K, x2 = 0): 1128.8 ± 1.4 m/s
- mass density ([1]; 313.15 K, x2 = 0): 860.49 ± 0.2 kg/m3
- viscosity ([1]; 318.15 K, x2 = 0): 0.53 ± 0.05 mPa·s
- speed of sound ([1]; 318.15 K, x2 = 0): 1108.5 ± 1.4 m/s
- mass density ([1]; 318.15 K, x2 = 0): 855.28 ± 0.2 kg/m3
- viscosity ([1]; 323.15 K, x2 = 0): 0.5 ± 0.05 mPa·s
- speed of sound ([1]; 323.15 K, x2 = 0): 1088.3 ± 1.4 m/s
- mass density ([1]; 323.15 K, x2 = 0): 850.03 ± 0.21 kg/m3

SMILES: CCCC=O [butanal]
- viscosity ([2]; 298.15 K): 0.43 ± 0.03 mPa·s
- speed of sound ([2]; 298.15 K): 1193.8 ± 1.4 m/s
- mass density ([2]; 298.15 K): 796.99 ± 0.21 kg/m3
- viscosity ([2]; 303.15 K): 0.4 ± 0.02 mPa·s
- speed of sound ([2]; 303.15 K): 1172.7 ± 1.4 m/s
- mass density ([2]; 303.15 K): 791.8 ± 0.21 kg/m3
- viscosity ([2]; 308.15 K): 0.39 ± 0.02 mPa·s
- speed of sound ([2]; 308.15 K): 1151.6 ± 1.4 m/s
- mass density ([2]; 308.15 K): 786.41 ± 0.21 kg/m3
- viscosity ([2]; 313.15 K): 0.36 ± 0.02 mPa·s
- speed of sound ([2]; 313.15 K): 1130.6 ± 1.4 m/s
- mass density ([2]; 313.15 K): 781.37 ± 0.21 kg/m3
- viscosity ([2]; 318.15 K): 0.35 ± 0.02 mPa·s
- speed of sound ([2]; 318.15 K): 1109.6 ± 1.4 m/s
- mass density ([2]; 318.15 K): 776.39 ± 0.21 kg/m3
- viscosity ([2]; 323.15 K): 0.32 ± 0.02 mPa·s
- speed of sound ([2]; 323.15 K): 1088.8 ± 1.4 m/s
- mass density ([2]; 323.15 K): 771.3 ± 0.22 kg/m3

SMILES: CCCCOC(C)=O [butyl ethanoate]
- viscosity ([2]; 298.15 K): 0.67 ± 0.07 mPa·s
- viscosity ([2]; 303.15 K): 0.64 ± 0.06 mPa·s
- viscosity ([2]; 308.15 K): 0.58 ± 0.06 mPa·s
- viscosity ([2]; 313.15 K): 0.57 ± 0.06 mPa·s
- viscosity ([2]; 318.15 K): 0.53 ± 0.05 mPa·s
- viscosity ([2]; 323.15 K): 0.5 ± 0.05 mPa·s

SMILES: CCCC[n+]1ccn(C)c1.O=S(=O)([N-]S(=O)(=O)C(F)(F)F)C(F)(F)F
- viscosity ([2]; 298.15 K): 50.04 ± 5 mPa·s
- speed of sound ([2]; 298.15 K): 1227.8 ± 1.5 m/s
- mass density ([2]; 298.15 K): 1436.82 ± 0.62 kg/m3
- viscosity ([2]; 303.15 K): 40.72 ± 4.1 mPa·s
- speed of sound ([2]; 303.15 K): 1217.5 ± 1.5 m/s
- mass density ([2]; 303.15 K): 1431.98 ± 0.61 kg/m3
- viscosity ([2]; 308.15 K): 33.73 ± 3.4 mPa·s
- speed of sound ([2]; 308.15 K): 1205.2 ± 1.5 m/s
- mass density ([2]; 308.15 K): 1427.16 ± 0.61 kg/m3
- viscosity ([2]; 313.15 K): 28.28 ± 2.8 mPa·s
- speed of sound ([2]; 313.15 K): 1194.4 ± 1.5 m/s
- mass density ([2]; 313.15 K): 1422.37 ± 0.6 kg/m3
- viscosity ([2]; 318.15 K): 24.01 ± 2.4 mPa·s
- speed of sound ([2]; 318.15 K): 1184.5 ± 1.5 m/s
- mass density ([2]; 318.15 K): 1417.6 ± 0.6 kg/m3
- viscosity ([2]; 323.15 K): 20.32 ± 2 mPa·s
- speed of sound ([2]; 323.15 K): 1171.3 ± 1.5 m/s
- mass density ([2]; 323.15 K): 1412.86 ± 0.59 kg/m3

SMILES: CCCC[n+]1ccn(C)c1.O=S(=O)([N-]S(=O)(=O)C(F)(F)F)C(F)(F)F + CCCCN
- viscosity ([1]; 298.15 K, x1 = 1): 50.04 ± 3 mPa·s
- speed of sound ([1]; 298.15 K, x1 = 1): 1227.8 ± 1.5 m/s
- mass density ([1]; 298.15 K, x1 = 1): 1436.82 ± 0.62 kg/m3
- viscosity ([1]; 303.15 K, x1 = 1): 40.72 ± 2.5 mPa·s
- speed of sound ([1]; 303.15 K, x1 = 1): 1217.5 ± 1.5 m/s
- mass density ([1]; 303.15 K, x1 = 1): 1431.98 ± 0.61 kg/m3
- viscosity ([1]; 308.15 K, x1 = 1): 33.73 ± 2.1 mPa·s
- speed of sound ([1]; 308.15 K, x1 = 1): 1205.2 ± 1.5 m/s
- mass density ([1]; 308.15 K, x1 = 1): 1427.16 ± 0.61 kg/m3
- viscosity ([1]; 313.15 K, x1 = 1): 28.28 ± 1.7 mPa·s
- speed of sound ([1]; 313.15 K, x1 = 1): 1194.4 ± 1.5 m/s
- mass density ([1]; 313.15 K, x1 = 1): 1422.37 ± 0.6 kg/m3
- viscosity ([1]; 318.15 K, x1 = 1): 24.01 ± 1.5 mPa·s
- speed of sound ([1]; 318.15 K, x1 = 1): 1184.5 ± 1.5 m/s
- mass density ([1]; 318.15 K, x1 = 1): 1417.6 ± 0.6 kg/m3
- viscosity ([1]; 323.15 K, x1 = 1): 20.32 ± 1.2 mPa·s
- speed of sound ([1]; 323.15 K, x1 = 1): 1171.3 ± 1.5 m/s
- mass density ([1]; 323.15 K, x1 = 1): 1412.86 ± 0.59 kg/m3
